According to article PMC3182149 (Phytochemistry letters, 2011):

Assays:
[1] = biological target: NF-κB p65 (Homo sapiens, UniProt Q04206); test: Enzyme-based ELISA NF-κB p65 assay; assay type: biochemical; settings: inhibition of binding of NF-κB to DNA; Hela nuclear extract
[2] = test system: panel of three human cancer cells; test: Cytotoxicity assay, panel of three human cancer cells; assay type: cell-based; settings: range over the panel of three human cancer cells
[3] = test system: LNCaP hormone-dependent prostate cancer cells; test: Cytotoxicity assay, LNCaP hormone-dependent prostate cancer cells; assay type: cell-based, human
[4] = test system: MCF-7 human breast cancer cells; test: Cytotoxicity assay, MCF-7 human breast cancer cell line; assay type: cell-based
[5] = test system: Lu1 human lung cancer cells; test: Cytotoxicity assay, Lu1 human lung cancer cells; assay type: cell-based

NF-κB p65, sequence (Q04206 whole entry): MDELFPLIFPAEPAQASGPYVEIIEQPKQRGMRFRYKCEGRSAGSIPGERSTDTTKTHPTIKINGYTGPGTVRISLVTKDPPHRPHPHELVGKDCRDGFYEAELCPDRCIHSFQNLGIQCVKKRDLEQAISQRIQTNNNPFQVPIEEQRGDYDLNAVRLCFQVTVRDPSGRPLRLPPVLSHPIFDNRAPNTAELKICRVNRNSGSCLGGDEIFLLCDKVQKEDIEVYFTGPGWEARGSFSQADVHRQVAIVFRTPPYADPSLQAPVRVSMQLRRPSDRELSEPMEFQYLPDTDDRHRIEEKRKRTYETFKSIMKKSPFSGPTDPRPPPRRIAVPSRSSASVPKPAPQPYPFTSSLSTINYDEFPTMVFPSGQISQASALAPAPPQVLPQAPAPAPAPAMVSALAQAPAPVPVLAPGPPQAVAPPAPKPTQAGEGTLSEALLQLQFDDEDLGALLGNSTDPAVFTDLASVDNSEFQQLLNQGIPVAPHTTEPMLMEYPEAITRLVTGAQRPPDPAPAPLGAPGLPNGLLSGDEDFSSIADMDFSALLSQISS
NF-κB p65, sequence (P19838 1-433 partner limits assumed): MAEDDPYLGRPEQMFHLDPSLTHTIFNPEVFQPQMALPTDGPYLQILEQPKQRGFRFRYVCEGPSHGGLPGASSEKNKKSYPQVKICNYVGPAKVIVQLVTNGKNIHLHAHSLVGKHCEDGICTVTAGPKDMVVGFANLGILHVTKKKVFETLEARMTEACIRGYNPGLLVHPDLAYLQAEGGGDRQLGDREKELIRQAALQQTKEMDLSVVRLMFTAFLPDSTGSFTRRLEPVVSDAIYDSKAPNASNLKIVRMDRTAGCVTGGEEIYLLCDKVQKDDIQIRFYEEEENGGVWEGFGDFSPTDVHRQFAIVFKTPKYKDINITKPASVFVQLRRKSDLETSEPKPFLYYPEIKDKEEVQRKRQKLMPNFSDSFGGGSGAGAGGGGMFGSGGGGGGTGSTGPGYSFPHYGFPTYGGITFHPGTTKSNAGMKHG

Q: “methyl 3,4,5-O-tricaffeoyl quinate [Compound 4]” was tested. Which ED50 [1] did it give?
A: The ED50 was 10.3 µM.

Q: Which results are given for COc1ccc([C@@H]2CC(=O)c3c(O)cc(OC)cc3O2)cc1 [Compound 3, (S)-5-hydroxy-7,4′-dimethoxyflavanone]?
A: ED50 values [2]: 1.1 to 6.7 µM; ED50 [3]: 6.7 µM; ED50 [4]: 1.1 µM; ED50 [5]: 4.7 µM
